Data reported in the NIST ThermoML archive (doi:10.1016/j.tca.2012.03.018).
Numbers after ± are expanded uncertainties. One block for each molecule: values may come before it.

Experiment: molar enthalpy of vaporization or sublimation
Settings: Liquid

molar enthalpy (373 K): 22 ± 0.335 kcal/mol
molar enthalpy (383.5 K, Transpiration): 22.3 ± 0.335 kcal/mol
Compound: CCCCCCCCCCCCCCCCCC(=O)OCC [ethyl octadecanoate]

molar enthalpy (333.5 K, Transpiration): 17.9 ± 0.191 kcal/mol
molar enthalpy (353 K): 17.8 ± 0.382 kcal/mol
Compound: CCCCCCCCCCCCCCCC [hexadecane]

molar enthalpy (353 K): 21.6 ± 0.239 kcal/mol
Compound: CCCCCCCCCCCCCCCCCC(=O)OC [methyl octadecanoate]

Continued, molecule first:

Compound: CCn1cc[n+](C)c1.O=S(=O)([N-]S(=O)(=O)C(F)(F)F)C(F)(F)F
molar enthalpy (525 K): 26.4 ± 0.717 kcal/mol

Compound: CCCCOC(=O)c1ccccc1C(=O)OCCCC [dibutyl phthalate]
molar enthalpy (393 K): 20.1 ± 0.382 kcal/mol
